This is an account of results in a melting point compilation (Tetko et al.; mined from patent text by program, amines drawn as free bases though some values may be those of a salt).

SMILES strings stand for the structures.

`CN(c1ccc(F)c(C(F)(F)F)c1)c1nccc(-c2ccc(F)c(C(F)(F)F)c2)n1`: the melting point – broadly, the temperature, or range, at which the solid turns liquid – was in the range of 83 to 84 °C.

Consider `CCCCC=Cc1ccc(Cc2c(C)[nH]c3ccc(C(=O)OC)cc23)c(Cl)c1`, for which the melting point was 141 to 146 °C.

Compound `CCOCc1nc2c(N)nc3ccc(CCc4ccccc4)cc3c2n1CC(C)(C)O` gave a melting point of 175 to 176 °C.

`CCCc1cn(C)c2c(=O)[nH]c(-c3cc(S(=O)(=O)N4CCN(CCCOC(C)=O)CC4)ccc3OCC)nc12` displayed a melting point of 157 to 158 °C.

For `Cc1ccc(Cn2nc(C(=O)NC3C(C)CCCC3C)cc2-c2ccc(Cl)c(Cl)c2)cc1Cl` (stereo unspecified), the melting point is 59.9 °C.

The compound `COC(=O)c1cc(S(N)(=O)=O)c(Br)cc1C` showed a melting point of 198 to 200 °C.

In the case of `CCC(C)N(C)C(=O)c1cc(-c2ccccc2)cc2ccccc12` (stereo unspecified), the melting point worked out at 125 °C.

For `CC(=O)OCCCNc1cc(C)nc2cn[nH]c12`, the melting point was 115 to 119 °C.

For `Cc1ccc2c(n1)Oc1ccc(C(C)C(=O)OCC(=O)N(C)C)cc1C2` (stereo unspecified), the melting point lay within 150 to 151 °C.

The compound `CON=C(N)C1=Nc2ccc(Cl)cc2C(c2ccccc2F)=NC1` showed a melting point of 120 to 124 °C.

With `O=C1CCC(CCc2ccc(-c3ccccc3)cc2)N1O` (stereo unspecified), the melting point is 192 to 194 °C.

In turn, `CCOc1ccc(C(c2ccc(C(C)CC)cc2)C(CC)[N+](=O)[O-])cc1` (stereo unspecified) came in with a melting point of 89 to 90 °C.

Compound `CCC(=O)OCC1OC(n2cc(F)c(=O)n(C(=O)c3cccc(OC)c3OC)c2=O)CC1OC(=O)CC` (stereo unspecified) displayed a melting point of 84.5 to 86 °C.

For `COc1ccc(S(=O)(=O)C(CC(=O)NO)Cc2ccc(OCc3ccccc3)cc2)cc1` (stereo unspecified), the melting point lay in the range of 128 to 130 °C.

As for `CSCc1noc(-c2cc(C(C)(C)C)c(O)c(C(C)(C)C)c2)n1`, the melting point was 97 to 98 °C.

With `COC(=O)CCCCc1csc(N=C2SC[C@@H]3Cc4ccccc4CN23)n1`, the melting point came to 92 °C.

Turning to `COc1ccc(-c2nn3c(SC)nnc3c3ccccc23)cc1`, the melting point lay in the range of 218 to 220 °C.

In the case of `COc1ccc(-c2cccc(C3=CCC(OC(Cc4ccccc4)C(=O)O)(c4c(Cc5ccccc5)oc5ccccc45)C=C3)c2)cc1` (stereo unspecified), the melting point was in the range of 73 to 75 °C.

`CCc1ccc(NC2=CC3=NCN(C)C3=CC2(F)C(N)=O)c(F)c1` (stereo unspecified) registered a melting point of 249 to 251 °C.

As for `N#Cc1ccc(C=CC(=O)c2ccc(O)c(CC(=O)O)c2)cc1`, the melting point is 249 °C.

Take `CCC(C)S(=O)(=O)c1cc(C(F)(F)F)ccc1C(=O)c1cnoc1C1CC1` (stereo unspecified): the melting point lay within 89 to 91 °C.

Compound `N=C(CF)Nc1cccc(C(N)=O)c1` gave a melting point of 219 to 220 °C.

For the compound `Nc1nc(Cc2ccccc2)ncc1C=S`, the melting point was in the range of 136 to 139 °C.

The compound `CCOC(=O)c1ncn(-c2nc(C)c(Cl)s2)c1S(N)(=O)=O` had a melting point of 136 to 139 °C.

For the compound `CCCCCCC(C(=O)O)n1c(C(F)(F)F)nc2cc(-c3ccccc3-c3nn[nH]n3)ccc21` (stereo unspecified), the melting point lay in the range of 128 to 130 °C.

As to `CCCCC(C)(OC)C(O)C=CC1C(O)CC(=O)C1CCCCCCC(=O)OC` (stereo unspecified), the melting point lay within 44 to 45 °C.

Take `C[C@H](NC(=O)[C@@H](CC(=O)O)NC(=O)c1ccccc1)C(=O)N1CCC[C@H]1C(=O)O`: the melting point was 161 to 163 °C.

Consider `CCCN1C(=O)c2cnc(-c3ccccc3)nc2N(C(=O)CCl)c2ccccc21`, for which the melting point fell in the range of 139 to 140 °C.

For the compound `O=C1NN(c2nc3ccc(Cl)cc3s2)C(c2ccccc2)C1c1ccccc1` (stereo unspecified), the melting point lay within 170 to 172 °C.

`CCN(CC)C(=O)c1ccoc1-c1ccc(N(C)C)cc1`: the melting point was 73 to 74 °C.

For the compound `CC(c1ccc(O)cc1)c1ccc(O)cc1`, the melting point was in the range of 123 to 125 °C.

In the case of `COc1cc2c(CC(=O)O)c(C)n(C(=O)c3ccccc3)c2cc1F`, the melting point lay in the range of 118 to 120 °C.

`CN(C)Cc1cnc2cc(NC(=O)c3ccc(-c4ccc(Cl)cc4)cc3)ccc2c1` displayed a melting point of 236 to 238 °C.

Consider `CCOC(=O)c1cc(-c2ccncc2)c(C(F)(F)F)nc1N`, for which the melting point fell in the range of 121 to 125 °C.

On to `COC(=O)C1=C(C)NC(C)=C(C(=O)OCC2CCCO2)C1c1cccc(O)c1` (stereo unspecified), for which the melting point is 170 to 172 °C.

`OCCON=Cc1cncc(-c2ccccc2)c1` gave a melting point of 102 to 104 °C.

On to `N#Cc1c(NCc2ccccc2)n[nH]c1N`, for which the melting point is 150 to 152 °C.

`COCC(=O)N(c1c(C)ccc(Cl)c1C)C1CCOC1=O` (stereo unspecified) gave a melting point of 80 to 82 °C.

Regarding `CCOc1ccc(C2=NN(c3ccc(C4=NNC(=O)CC4C)cc3)C(=O)C3CC=CCC23)cc1OCC` (stereo unspecified), the melting point is 164 to 165 °C.

Compound `C/C(=C\c1ccc(OC(C)C)cc1Oc1ncc(C(F)(F)F)cc1Cl)C(=O)O` registered a melting point of 114 °C.

On to `CCOC(=O)N(CCNc1ccc2ncc(-c3ccc(C(N)=O)cc3)n2n1)c1ccccc1`, for which the melting point lay within 227 to 228 °C.

Compound `NC(=O)N(O)CCNC(=O)CCc1ccccc1` displayed a melting point of 165 to 167 °C.

The compound `Clc1ccc2nc(N3CCN(c4ncccc4Cl)CC3)[nH]c2c1` gave a melting point of 214 to 215 °C.

`Cc1cccc2c1Sc1ccccc1N2` yielded a melting point of 115 °C.

Regarding `CS(=O)(=O)c1ccc(C2=C(c3ccc(F)cc3)CC(CF)(CF)C2)cc1`, the melting point lay in the range of 134 to 135 °C.

On to `CCOC(=O)c1c(CN(CC)CC)nc2sc3c(c2c1-c1ccc(OC)c(OC)c1)CN(C(=O)c1ccc(Cl)cc1)CC3`, for which the melting point was 91 to 92 °C.

`COC(=O)c1c(OC)cc(N(C)C)nc1C` showed a melting point of 65 to 66 °C.

The compound `O=C1NC2CCCC1NC2=O` registered a melting point of 280 to 283 °C.

Compound `Cc1nn(-c2ccccn2)cc1CO` gave a melting point of 116 to 117 °C.

Compound `Clc1ccc(CN2CC=C(/C=C/c3ccccc3)CC2)cc1` showed a melting point of 141 to 142 °C.

With `CCOC(=O)C(=Cc1cccn2cc(C(F)(F)F)nc12)N=[N+]=[N-]`, the melting point lay in the range of 140 to 142 °C.

Compound `FC(F)c1cn(-c2c(Cl)cc(C(F)(F)F)cc2Cl)nc1C(F)(F)F` displayed a melting point of 88 to 90 °C.

`O=C1OCCC12Sc1ccc(Cl)cc1C2=O` (stereo unspecified) registered a melting point of 143 to 144 °C.

On to `COC(=O)c1ccc(C)c(-c2cc3cnc(NC4CCOCC4)nc3n(C)c2=O)c1`, for which the melting point is 122 to 126 °C.

`COc1ccc(C=CCN2CCC3(CC2)CN(C(=O)c2ccnc(Cl)c2)c2ccc(Cl)cc23)cc1` came in with a melting point of 83 to 85 °C.

In turn, `NCCNCCNc1ccc2c3c(nn2CCO)-c2c(O)ccc(O)c2C(=O)c13` came in with a melting point of 185 to 190 °C.

For the compound `Cc1nc2cccc([N+](=O)[O-])c2s1`, the melting point lay in the range of 120 to 121 °C.

The compound `COc1nc(OC)c(C(C)C)c(C(C#N)c2cc(Cl)cc(Cl)c2)n1` (stereo unspecified) showed a melting point of 135 to 136 °C.

In the case of `COc1ccc(N2CCc3c2c2cccc(OC)c2[nH]c3=O)c(C)c1`, the melting point was 188 to 191 °C.

The compound `CCOC(=O)COc1ccc(C(=O)CN2CCN(c3ccncc3)CC2=O)cc1` registered a melting point of 163 to 165 °C.

On to `Cc1sc(-c2ccccc2)nc1COc1ccc(COc2ncccc2CO)cc1`, for which the melting point lay within 111 to 112 °C.

In turn, `CC(C)CCc1c(-c2ccc(S(C)(=O)=O)cc2)cnn(-c2ccc(F)c(F)c2)c1=O` returned a melting point of 55 to 58 °C.

Compound `Cn1cc(S(=O)(=O)Cl)c(=O)c2cc(F)c(Cl)cc21` had a melting point greater than 300 °C.

Regarding `Cc1cc(C#Cc2cn(-c3ncccn3)c(C)n2)ccn1`, the melting point was in the range of 164 to 165 °C.

Take `C#CCOc1ccc(C=NOC)cc1OC`: the melting point lay in the range of 68 to 69 °C.

`CCc1nc2cc(OC)c(OC)cc2c(-c2ccc(OC)c(OC)c2)c1C(=O)O` registered a melting point of 264 to 267 °C.

The compound `CCOC(=O)c1c(N=[N+]=[N-])[nH]c(=O)c(I)c1Oc1cc(C)cc(C)c1` displayed a melting point of 216 to 218 °C.

On to `CC1(C)CC(=O)C2=C(C1)NC1=C(C(=O)CC(C)(C)C1)C2c1ccc2c(c1)OCCO2`, for which the melting point is greater than 300 °C.

As to `O=[N+]([O-])c1cccc(-c2cc3c(Cl)ncnc3o2)c1`, the melting point fell in the range of 196 to 205 °C.

In the case of `Cc1cc(-c2cccc(-c3ccc(OCC(=O)O)c4c3CCCC4)n2)c(C)[nH]1`, the melting point fell in the range of 199 to 206 °C.

For the compound `CCOCc1ncccc1CN(CCn1ccc2oc(C)cc2c1=O)Cc1ccc2c(c1)N(C)C(=O)C(C)(C)C(=O)N2CC`, the melting point fell in the range of 104 to 106 °C.

`CCCn1c(=O)n(C)c(=O)c2nc(-c3ccc(/C=C/C(=O)O)cc3)[nH]c21`: the melting point is greater than 300 °C.

Regarding `O=C(NCCN1CCC(Nc2nc3ccccc3n2Cc2ccc(F)cc2)CC1)c1ccc(F)cc1`, the melting point is 194 °C.

In the case of `CCOC(=O)c1c(-c2cccc([N+](=O)[O-])c2)cc(-c2ccccc2)nc1CBr`, the melting point was in the range of 125 to 128 °C.

In turn, `CSc1ncc(C(=O)N(C)Cc2cc(C(F)(F)F)cc(C(F)(F)F)c2)c(-c2ccccc2)n1` displayed a melting point of 119 to 120 °C.

`Cc1ccc(O)c(C(=O)Nc2cc(Cl)cc(Cl)c2)c1` returned a melting point of 216 to 217 °C.

`CCCCCCCCCCOc1ccc(-c2ccc(C#CCCC(C)OC)cc2)cc1` (stereo unspecified) returned a melting point of 97 to 99 °C.

Regarding `O=C(Cc1c[nH]c2ccccc12)NCCN1CCC(Nc2nc3ccccc3n2Cc2ccc(F)cc2)CC1`, the melting point worked out at 194 °C.

Turning to `Cn1ccnc1NC(=O)c1c(C(F)(F)F)nc2c(C(F)(F)F)cccc2c1O`, the melting point turned out to be 259 °C.

On to `CN(CCOCC(=O)OC(C)(C)C)C(=O)c1c(-c2ccc(C(C)(C)C)cc2)n(C)n(-c2ccc(C#N)cc2)c1=O`, for which the melting point lay in the range of 218 to 222 °C.

For the compound `CCCCNC1=NS(=O)(=O)c2ccc(Cl)cc2N1`, the melting point lay in the range of 267 to 269 °C.

Consider `O=C(CCCN1CCN(c2ncc3ccccc3n2)CC1)c1ccc(F)cc1`, for which the melting point was in the range of 129 to 131 °C.

For `CC(C)(C)NC(=O)N1CCN(Cc2ccccc2)C[C@@H]1C(=O)NCCc1cncn1Cc1ccc(C#N)cc1`, the melting point worked out at 97.8 °C.

In turn, `CC(C)(C)c1cc(-n2nc3ccc(Sc4ccccc4)cc3n2)c(O)c(C(C)(C)C)c1` came in with a melting point of 132 to 134 °C.

`CCN1c2ncc(COc3cccc(OC)c3)cc2C(=O)N(C)c2ccc(Cl)nc21` yielded a melting point of 95 to 97 °C.

With `CCOC(=O)C(C(N)=O)C12CC3CC(CC(C3)C1)C2` (stereo unspecified), the melting point is 97 to 98 °C.
